Measurements as given in patent US10472333B2, “P2X4 receptor antagonist” (NIPPON CHEMIPHAR CO., LTD., priority 2013, dated 2019).

Experiments:
Human P2X7 = biological target: T1, Human P2X7 (Homo sapiens, UniProt Q99572); assay: P2X receptor family selectivity, calcium imaging method using cells expressing the receptor; type: cell-based
T1 construct: host or cells: cells expressing the receptor
T1 sequence (Q99572 1-595): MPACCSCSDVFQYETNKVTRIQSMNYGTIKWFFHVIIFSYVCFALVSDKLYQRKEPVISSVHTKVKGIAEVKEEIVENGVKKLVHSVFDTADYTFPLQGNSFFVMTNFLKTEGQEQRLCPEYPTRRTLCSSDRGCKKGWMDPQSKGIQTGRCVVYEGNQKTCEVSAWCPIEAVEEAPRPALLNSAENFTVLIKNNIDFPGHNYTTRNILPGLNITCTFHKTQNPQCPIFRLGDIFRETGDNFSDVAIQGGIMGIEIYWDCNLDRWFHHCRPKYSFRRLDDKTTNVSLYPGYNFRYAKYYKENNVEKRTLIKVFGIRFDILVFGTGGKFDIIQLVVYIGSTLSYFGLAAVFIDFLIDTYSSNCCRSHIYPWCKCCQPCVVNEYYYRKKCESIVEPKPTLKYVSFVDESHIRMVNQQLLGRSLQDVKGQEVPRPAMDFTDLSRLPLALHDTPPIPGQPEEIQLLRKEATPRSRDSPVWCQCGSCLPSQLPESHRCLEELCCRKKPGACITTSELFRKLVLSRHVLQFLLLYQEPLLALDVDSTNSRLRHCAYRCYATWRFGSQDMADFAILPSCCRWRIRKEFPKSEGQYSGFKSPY

Rat P2X7 = biological target: T2, Rat P2X7 (Rattus norvegicus, UniProt Q64663); assay: as above; type: cell-based
T2 construct: host or cells: cells expressing the receptor
T2 sequence (Q64663 1-595): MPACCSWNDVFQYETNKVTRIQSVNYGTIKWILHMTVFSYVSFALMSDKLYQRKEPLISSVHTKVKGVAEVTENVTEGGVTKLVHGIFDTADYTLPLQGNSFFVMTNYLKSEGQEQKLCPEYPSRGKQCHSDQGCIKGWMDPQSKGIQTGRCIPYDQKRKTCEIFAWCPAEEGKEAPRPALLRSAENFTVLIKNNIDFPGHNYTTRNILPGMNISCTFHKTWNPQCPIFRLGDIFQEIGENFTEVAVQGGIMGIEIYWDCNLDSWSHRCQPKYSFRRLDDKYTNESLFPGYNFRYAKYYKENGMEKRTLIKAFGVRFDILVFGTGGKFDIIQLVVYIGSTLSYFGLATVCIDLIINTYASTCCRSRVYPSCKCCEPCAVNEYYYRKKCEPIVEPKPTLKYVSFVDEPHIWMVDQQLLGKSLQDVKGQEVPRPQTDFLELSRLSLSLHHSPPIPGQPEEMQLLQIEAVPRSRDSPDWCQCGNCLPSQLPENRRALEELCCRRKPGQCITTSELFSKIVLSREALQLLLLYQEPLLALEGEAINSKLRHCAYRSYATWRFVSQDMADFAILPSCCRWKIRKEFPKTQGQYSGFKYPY

Rat P2X3 = biological target: T3, Rat P2X3 (Rattus norvegicus, UniProt P49654); assay: as above; type: cell-based
T3 construct: host or cells: cells expressing the receptor
T3 sequence (P49654 1-397): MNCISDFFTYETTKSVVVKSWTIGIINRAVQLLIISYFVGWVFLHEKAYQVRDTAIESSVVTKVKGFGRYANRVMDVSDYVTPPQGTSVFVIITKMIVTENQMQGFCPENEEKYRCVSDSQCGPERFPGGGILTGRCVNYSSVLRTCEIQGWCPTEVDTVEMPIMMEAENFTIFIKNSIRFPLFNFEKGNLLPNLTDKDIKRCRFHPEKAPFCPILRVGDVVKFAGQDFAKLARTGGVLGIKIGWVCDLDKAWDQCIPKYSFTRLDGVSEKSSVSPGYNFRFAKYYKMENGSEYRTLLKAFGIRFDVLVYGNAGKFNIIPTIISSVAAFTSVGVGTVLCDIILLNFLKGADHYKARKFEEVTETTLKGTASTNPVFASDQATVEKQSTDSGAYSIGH

human P2X4 receptor = biological target: T4, human P2X4 receptor (Homo sapiens, UniProt Q99571); assay: P2X4 receptor antagonist activity, ATP-induced intracellular calcium (Fura-2 AM) in 1321N1 cells stably expressing human P2X4 receptor; type: cell-based; settings: among human, mouse, and rat
T4 sequence (Q99571 1-388): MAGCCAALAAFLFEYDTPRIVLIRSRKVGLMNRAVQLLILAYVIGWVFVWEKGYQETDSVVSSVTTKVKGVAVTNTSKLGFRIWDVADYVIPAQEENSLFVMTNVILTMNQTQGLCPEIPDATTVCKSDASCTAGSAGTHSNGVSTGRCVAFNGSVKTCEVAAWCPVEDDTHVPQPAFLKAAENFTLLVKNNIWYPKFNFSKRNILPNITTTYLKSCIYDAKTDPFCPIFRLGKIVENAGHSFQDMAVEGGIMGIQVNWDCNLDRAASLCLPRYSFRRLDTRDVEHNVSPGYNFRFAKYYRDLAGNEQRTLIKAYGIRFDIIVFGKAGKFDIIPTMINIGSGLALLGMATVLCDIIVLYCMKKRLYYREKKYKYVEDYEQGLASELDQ

[1] = system: rat neuropathic pain model (modified Chung model); assay: Analgesic activity, rat neuropathic pain model (modified Chung model), von Frey filament test; type: in vivo
Method: The analgesic activity of the compound of the present invention was measured by the following method.
Rat neuropathic pain model (modified Chung model) was prepared according to the method of Kim, S. H., Chung, J. M. et al. (An experimental model for peripheral neuropathy produced by segmental spinal nerve ligation in the rat, Pain, 50, 355-363 (1992)). More specifically; under isoflurane anesthesia, back hair of rats was extensively shaved, the shaved parts were wiped with rubbing alcohol, the rats were fixed in the prone position on a heating pad, and the skins were cut and opened along the dorsal median line on the upper and lower sides of the sacroiliac bone. The left lateral paravertebral muscle was separated in the sacral region, and then the ligament was separated. […]
The pain threshold (paw withdrawal threshold (g)) was measured by stimulating the soles of rats with each of seven von Frey filaments (Stoelting Co., TOUCH-TEST SENSORY EVALUATOR) that gave different stimulation strengths, and determining presence or absence of withdrawal response. The 50% threshold was calculated according to the up down method with reference to the method of Chaplan et al. (Chaplan S R, Bach F W, Pogrel J W, Chung J M, Yaksh T L: Quantitative assessment of tactile allodynia in the rat paw, J. Neurosci. Method, 53:55-63 (1994)). […]

Mouse P2X4 = biological target: T5, Mouse P2X4 (Mus musculus, UniProt Q9JJX6); assay: P2X receptor family selectivity, calcium imaging method using cells expressing the receptor; type: cell-based
T5 construct: host or cells: cells expressing the receptor
T5 sequence (Q9JJX6 1-388): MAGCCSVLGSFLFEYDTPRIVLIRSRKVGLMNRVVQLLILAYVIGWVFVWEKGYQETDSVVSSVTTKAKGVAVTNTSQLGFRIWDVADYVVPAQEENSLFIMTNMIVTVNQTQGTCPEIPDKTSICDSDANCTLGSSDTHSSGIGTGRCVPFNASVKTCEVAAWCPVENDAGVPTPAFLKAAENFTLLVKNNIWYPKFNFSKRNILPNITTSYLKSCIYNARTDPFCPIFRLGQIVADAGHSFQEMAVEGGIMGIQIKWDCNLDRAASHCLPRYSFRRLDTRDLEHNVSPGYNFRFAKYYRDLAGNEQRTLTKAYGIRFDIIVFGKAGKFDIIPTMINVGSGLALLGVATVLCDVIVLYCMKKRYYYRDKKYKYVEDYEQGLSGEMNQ
Text: (§1) The inhibitory activities of the compound against the rat and mouse P2X4 receptors were also confirmed.

Rat P2X4 = biological target: T6, Rat P2X4 (Rattus norvegicus, UniProt P51577); assay: as above; type: cell-based
T6 construct: host or cells: cells expressing the receptor
T6 sequence (P51577 1-388): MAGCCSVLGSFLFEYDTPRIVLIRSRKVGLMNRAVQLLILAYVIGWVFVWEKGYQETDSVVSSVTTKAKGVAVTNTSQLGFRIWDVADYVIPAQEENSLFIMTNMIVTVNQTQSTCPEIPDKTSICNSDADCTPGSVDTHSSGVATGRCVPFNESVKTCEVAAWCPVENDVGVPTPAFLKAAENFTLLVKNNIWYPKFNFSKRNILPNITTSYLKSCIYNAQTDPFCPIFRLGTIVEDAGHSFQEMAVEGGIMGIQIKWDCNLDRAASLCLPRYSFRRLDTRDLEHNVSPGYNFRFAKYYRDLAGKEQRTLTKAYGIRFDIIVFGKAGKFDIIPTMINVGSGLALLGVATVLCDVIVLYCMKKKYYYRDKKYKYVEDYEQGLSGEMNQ
Text: as §1

CN(C)c1ncccc1C(=O)Nc1ccc(C2=NCC(=O)Nc3c2ccc2ccccc32)cc1.Cl.Cl [Example 15, 2-(Dimethylamino)-N-[4-(2-oxo-2,3-dihydro-1H-naphtho[1,2-e][1,4]diazepin-5-yl)phenyl]nicotinamide dihydrochloride]
IC50 (Human P2X7): > 30 µM
IC50 (Rat P2X7): > 30 µM
IC50 (Rat P2X3): 6.8 µM
Species-specific difference of the P2X4 receptor inhibitory activity (human P2X4 receptor): not observed
pain threshold of the affected limb (von Frey filament test) ([1]; rat modified Chung model, 30 mg/kg orally twice a day (60 mg/kg/day) for 14 days from day 9 after operation, measured 3 hours after administration, vs. vehicle group): increased
analgesic activity ([1]; rat neuropathic pain model (modified Chung model)): superior analgesic activity
IC50 (Mouse P2X4): 0.52 µM
IC50 (Rat P2X4): 1.3 µM
